For assay [1], the target named is T1, Human Serotonin Transporter (hSERT) (Homo sapiens, UniProt P31645).
T1 construct: expressed in transfected cells; host or cells: HEK-293, membrane preparation
Briefly: hSERT scintillation proximity assay (SPA), competition with [3H]-Citalopram. The settings on record: pKi, membranes of HEK-293 cells expressing recombinant hSERT, read-out: SERT (converted). The class given is binding. From the text:
Screening for Human Serotonin Transporter (hSERT) Antagonists Using a Scintillation Proximity Assay (SPA)
The screening assay of this example was used to determine the affinity of ligands at the hSERT transporter by competition with [^3H]-Citalopram.
Scintillation Proximity Assay (SPA) works by bringing radioligand within close proximity to the bead's scintillant to stimulate light emission. In this assay, the receptor-containing membranes were pre-coupled to the SPA beads and the binding of the appropriate radioligand to the transporter was measured. The light emission was proportional to the amount of bound radioligand. Unbound radioligand produced no signal as a result of distant proximity to scintillant (lack of energy transfer).
HEK-293 cells (Tatsumi et al., Eur. J. Pharmacol. 1997, 30, 249-258) stably expressing recombinant hSERT were maintained with media (DMEM high glucose with 10% FBS, 300 ug/ml G418 and 2 mM L-Glutamine) and incubated at 37° C. with 5% CO2. Cells are released from culture flasks using PBS for 1-2 minutes. The cells were subsequently centrifuged at 1000 g′ s for 5 minutes and resuspended in PBS prior to being used in the membrane preparation.
(§1) Cell membranes were prepared using a membrane preparation buffer of 50 mM TRIS (pH 7.4). Cell membranes were prepared from a single cube (7.5×10^9 cells total). Cells were homogenized using a Polytron (setting medium for a 4 second burst). The homogenate was then centrifuged at 48,000×g for 15 minutes, the supernatant subsequently removed and discarded, and the pellet resuspended with fresh buffer. After a second centrifugation, the pellet was re-homogenized and brought to a final volume determined during the assay. Typically, membrane portions were aliquoted in 3 mg/ml (w:v). and stored at −80° C.
For Scintillation Proximity Assay IC50/Ki determination, 50 mM Tris-HCl and 300 mM NaCl, (pH 7.4) buffers were utilized. Compounds of the invention were diluted from 10 mM to 0.1 nM FAC (10 point curves, whole log/half log dilutions) via a Beckman Biomek 2000 using a serial dilution protocol. The test compounds were then transferred (20 ul/well) and the [^3H]-Citalopram radioligand was added at 50 ul/well. Membrane and beads were prepared to a ratio of 10 ug:0.7 mg, with 0.7 mg PVT-WGA Amersham beads (Cat# RPQ0282V) added per well. 130 ul of the membrane: bead mixture was added to the assay plate. The mixtures were allowed to stand at room temperature for one hour, and were then counted on a Packard TopCount LCS, a generic Scintillation Proximity Assay counting protocol settings (Energy Range: Low, Efficiency Mode: Normal, Region A: 1.50-35.00, Region B: 1.50-256.00, Count Time (min.): 0.40, Background Subtract: none, Half-Life Correction: no, Quench Indicator: tSIS, Platemap blank subtraction: No, Cross talk reduction: Off).
The % inhibition was calculated for each compound tested [(Compound counts per minute (CPM) at maximum concentration-Non-Specific CPM)/Total CPM*100]. The concentration producing 50% inhibition (IC50) was determined using an iterative non-linear curve fitting technique with Activity Base/Xlfit using the following equation:
(§2) where max=total binding, min=non specific binding, x=concentration (M) of the tested compound and n=Hill slope. The inhibition dissociation constant (Ki) of each compound was determined according to the method of Cheng-Prusoff and then converted into negative logarithm (pKi) of the Ki.

Assay [2] addresses T2, Human Norepinephrine Transporter (hNET) (Homo sapiens, UniProt P23975).
T2 construct: expressed in transfected cells; host or cells: HEK-293 (Clone: HEK-hNET #2), membrane preparation
The assay can be described thus: hNET scintillation proximity assay (SPA), competition with [3H]-Nisoxetine. The settings on record: pKi, membranes of HEK-293 cells expressing recombinant hNET, read-out: NET (converted). The class given is binding. On the procedure: Screening for compounds active at Human Norepinephrine Transporter (hNET) Using a Scintillation Proximity Assay (SPA)
This assay was used to determine the affinity of ligands for the hNET transporter by competition with [^3H]-Nisoxetine. As in the hSERT assay of the above example, receptor-containing membranes were pre-coupled to the SPA beads and the binding of the appropriate radioligand to the transporter was measured. The light emission was proportional to the amount of bound radioligand, with unbound radioligand producing no signal.
HEK-293 cells (Tatsumi et al., Eur. J. Pharmacol. 1997, 30, 249-258) stably expressing recombinant hNET (Clone: HEK-hNET #2) were maintained with media (DMEM hi glucose with 10% FBS, 300 ug/ml G418 and 2 mM L-Glutamine) and incubated at 37° C. with 5% CO2. Cells were released from culture flasks using PBS for 1-2 minutes. The cells were subsequently centrifuged at 1000 g′ s for 5 minutes and resuspended in PBS prior to being used in the membrane preparation.
as §1, with “3-6” for “3”
^3[H] Nisoxetine radioligand (Amersham Cat. # TRK942 or Perkin Elmer Cat. # NET1084, specific activity: 70-87 Ci/mmol, stock concentration: 1.22e-5 M, final concentration: 8.25e-9 M), and 50 mM Tris-HCl, 300 mM NaCl, (pH 7.4) buffers were used for Scintillation Proximity Assay IC50/Ki determination. Compounds of the invention were diluted from 10 mM to 0.1 nM FAC (10 point curves, whole log/half log dilutions) via a Beckman Biomek 2000 using a serial dilution protocol. The test compounds were then transferred (20 ul/well) and the radioligand was added at 50 ul/well. Membrane and beads were prepared to a ratio of […], with 0.7 mg PVT-WGA Amersham beads (Cat# RPQ0282V) added per well. […] of the membrane: bead mixture was added to the assay plate. The mixtures were allowed to stand at room temperature for one hour, and were then counted on a Packard TopCount LCS, a generic SPA counting protocol settings (Energy Range: Low, Efficiency Mode: Normal, Region A: 1.50-35.00, Region B: 1.50-256.00, Count Time (min.): 0.40, Background Subtract: none, Half-Life Correction: no, Quench Indicator: tSIS, Platemap blank subtraction: No, Cross talk reduction: Off).
The % inhibition was calculated for each compound tested [(Compound CPM at maximum concentration-Non-Specific CPM)/Total CPM*100]. The concentration producing 50% inhibition (IC50) was determined using an iterative non-linear curve fitting technique with Activity Base/Xlfit using the following equation:
as §2

T1 sequence (P31645 whole entry): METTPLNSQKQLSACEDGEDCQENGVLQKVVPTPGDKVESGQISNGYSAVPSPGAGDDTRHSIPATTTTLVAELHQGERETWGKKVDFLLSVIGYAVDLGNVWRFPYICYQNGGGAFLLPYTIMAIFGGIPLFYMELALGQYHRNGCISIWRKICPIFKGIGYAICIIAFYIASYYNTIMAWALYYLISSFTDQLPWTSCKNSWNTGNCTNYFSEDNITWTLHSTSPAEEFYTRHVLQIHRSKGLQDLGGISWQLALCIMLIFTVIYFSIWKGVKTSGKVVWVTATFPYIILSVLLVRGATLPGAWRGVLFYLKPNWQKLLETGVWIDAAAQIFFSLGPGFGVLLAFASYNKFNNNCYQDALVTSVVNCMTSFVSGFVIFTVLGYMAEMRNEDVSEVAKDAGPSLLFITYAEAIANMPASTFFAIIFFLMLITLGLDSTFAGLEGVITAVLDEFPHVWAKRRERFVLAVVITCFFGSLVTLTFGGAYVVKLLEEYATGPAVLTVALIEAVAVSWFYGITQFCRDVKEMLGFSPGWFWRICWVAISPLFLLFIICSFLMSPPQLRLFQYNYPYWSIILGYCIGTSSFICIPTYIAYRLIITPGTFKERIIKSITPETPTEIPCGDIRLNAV
T2 sequence (P23975 whole entry): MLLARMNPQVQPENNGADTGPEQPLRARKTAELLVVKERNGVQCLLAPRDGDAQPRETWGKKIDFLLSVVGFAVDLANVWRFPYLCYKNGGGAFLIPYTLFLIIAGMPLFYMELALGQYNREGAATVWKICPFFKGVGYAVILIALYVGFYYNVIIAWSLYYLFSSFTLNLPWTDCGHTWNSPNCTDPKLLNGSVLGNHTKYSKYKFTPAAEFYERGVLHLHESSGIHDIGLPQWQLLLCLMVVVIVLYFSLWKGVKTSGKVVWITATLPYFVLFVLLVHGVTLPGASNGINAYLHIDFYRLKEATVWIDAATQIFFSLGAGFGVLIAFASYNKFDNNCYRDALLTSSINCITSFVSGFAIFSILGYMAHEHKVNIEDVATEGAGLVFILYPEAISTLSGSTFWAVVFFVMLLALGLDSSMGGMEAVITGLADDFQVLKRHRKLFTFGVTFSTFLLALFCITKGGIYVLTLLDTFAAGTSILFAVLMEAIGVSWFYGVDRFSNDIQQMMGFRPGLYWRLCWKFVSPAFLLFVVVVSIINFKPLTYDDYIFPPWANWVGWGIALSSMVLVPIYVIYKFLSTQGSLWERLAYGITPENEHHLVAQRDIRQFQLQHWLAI

`c1ccc([C@H]2CCNCC[C@H]2c2ccccc2)cc1` [Compound 1, (4S,5R)-4,5-Diphenyl-azepane]: the Ki in assay [1] was 9.33 nM; in assay [2], 124 nM.

Regarding `COc1ccccc1[C@H]1CCNCC[C@H]1c1ccccc1` [Compound 2, (4S,5R)-4-(2-Methoxy-phenyl)-5-phenyl-azepane], the figures for the Ki in assay [1] and in assay [2] were 3.98 nM and 30.9 nM, respectively.

On to `c1ccc([C@H]2CCCNC[C@@H]2c2ccccc2)cc1` [Compound 3, (3S,4S)-3,4-Diphenyl-azepane], for which the Ki in assay [1] is 226 nM; in assay [2], 77.2 nM.

For `c1ccc([C@H]2CCNCC[C@@H]2c2ccccc2)cc1` [Compound 4, (4S,5S)-4,5-Diphenyl-azepane], the Ki in assay [1] was 468 nM; in assay [2], 741 nM.

In the case of `c1ccc([C@H]2CNCCO[C@@H]2c2ccccc2)cc1` [Compound 5, (6S,7S)-6,7-Diphenyl-[1,4]oxazepane], the Ki was 684 nM in assay [1] and 133 nM in assay [2].

Turning to `c1ccc([C@H]2CNCCO[C@H]2c2ccccc2)cc1` [Compound 6, (6S,7R)-6,7-Diphenyl-[1,4]oxazepane], the Ki in assay [2] is 417 nM.

`COc1ccccc1[C@@H]1OCCNC[C@@H]1c1ccccc1` [Compound 7, (6S,7R)-7-(2-Methoxy-phenyl)-6-phenyl-[1,4]oxazepane]: the Ki was 398 nM in assay [1] and 106 nM in assay [2].

Take `COc1ccc([C@@H]2OCCNC[C@@H]2c2ccccc2)cc1` [Compound 8, (6S,7R)-7-(4-Methoxy-phenyl)-6-phenyl-[1,4]oxazepane]: in assay [1], the Ki is 34.7 nM.

For `Fc1ccccc1[C@@H]1OCCNC[C@@H]1c1ccccc1` [Compound 9, (6S,7R)-7-(2-Fluoro-phenyl)-6-phenyl-[1,4]oxazepane], the values for the Ki in assay [1] and in assay [2] were 398 nM and 275 nM, respectively.

For the compound `Fc1ccc([C@@H]2OCCNC[C@@H]2c2ccccc2)cc1` [Compound 10, (6S,7R)-7-(4-Fluoro-phenyl)-6-phenyl-[1,4]oxazepane], the Ki was 234 nM in assay [1] and 432 nM in assay [2].

Take `c1ccc(C2CNCCCN2c2ccccc2)cc1` (centres unmarked) [Compound 11, 1,2-Diphenyl-[1,4]diazepane]: the Ki in assay [1] was 785 nM; in assay [2], 282 nM.

With `c1ccc(C2CCNCCN2c2ccccc2)cc1` (centres unmarked) [Compound 12, 1,7-Diphenyl-[1,4]diazepane], the Ki in assay [1] was 407 nM; in assay [2] it was 335 nM.

With `COc1ccc(C2CCNCCN2c2ccccc2)cc1` (centres unmarked) [Compound 13, 7-(4-Methoxy-phenyl)-1-phenyl-[1,4]diazepane], the Ki in assay [1] was 105 nM; in assay [2], 676 nM.

On to `COc1ccc(C2CNCCCN2c2ccccc2)cc1` (centres unmarked) [Compound 14, 2-(4-Methoxy-phenyl)-1-phenyl-[1,4]diazepane], for which the Ki in assay [1] is 164 nM.

For `Clc1ccc(C2CCNCCN2c2ccccc2)cc1` (centres unmarked) [Compound 15, 7-(4-Chloro-phenyl)-1-phenyl-[1,4]diazepane], the Ki in assay [1] was 407 nM; in assay [2], 229 nM.

Take `Clc1ccc(C2CNCCCN2c2ccccc2)cc1` (centres unmarked) [Compound 16, 2-(4-Chloro-phenyl)-1-phenyl-[1,4]diazepane]: the Ki in assay [1] was 339 nM; in assay [2] it was 263 nM.

With `COc1ccccc1C1CCNCCN1c1ccccc1` (centres unmarked) [Compound 17, 7-(2-Methoxy-phenyl)-1-phenyl-[1,4]diazepane], the results for the Ki in assay [1] and in assay [2] were 170 nM and 422 nM, respectively.

Consider `COc1ccccc1C1CNCCCN1c1ccccc1` (centres unmarked) [Compound 18, 2-(2-Methoxy-phenyl)-1-phenyl-[1,4]diazepane], for which the values for the Ki in assay [1] and in assay [2] were 1100 nM and 2040 nM, respectively.

On to `Clc1ccccc1C1CCNCCN1c1ccccc1` (centres unmarked) [Compound 19, 7-(2-Chloro-phenyl)-1-phenyl-[1,4]diazepane], for which the Ki in assay [1] was 73.3 nM; in assay [2], 219 nM.

As for `Clc1ccccc1C1CNCCCN1c1ccccc1` (centres unmarked) [Compound 20, 2-(2-Chloro-phenyl)-1-phenyl-[1,4]diazepane], the Ki in assay [1] was 394 nM.

With `Fc1ccc(C2CCNCCN2c2ccccc2)cc1` (centres unmarked) [Compound 23, 7-(4-Fluoro-phenyl)-1-phenyl-[1,4]diazepane], the Ki in assay [1] was 3630 nM.

In the case of `Fc1ccc(C2CNCCCN2c2ccccc2)cc1` (centres unmarked) [Compound 24, 2-(4-Fluoro-phenyl)-1-phenyl-[1,4]diazepane], the Ki in assay [2] was 214 nM.

(Values after patent US20110136787A1, “DIPHENYL AZEPANE, DIAZEPANE AND OXAZEPANE DERIVATIVES AND USES THEREOF” (priority 2009, published 2011).)
